From PMC3541007 (ChemMedChem, 2009)
In brackets after ≈: the same amount, converted by molar mass. Several values for one entry are separate records, joined by “and”; a condition that tells them apart may be missing. Identical values can stand only once. Like-named read-outs stand apart in the source and are kept apart here.

Columns and labels:
[1] = test system: M. tuberculosis H37Rv ΔkatG; type: cell-based, Mycobacterium tuberculosis
[2] = test system: M. tuberculosis H37Rv PmabAinhA (C-15T); type: cell-based; conditions: for MIC H37Rv PmabAinhA (C-15T): four weeks
M. tuberculosis H37Rv = type: cell-based; conditions: wild-type, INH-sensitive, four weeks
InhA [3] = conditions: read-out: Ki against InhA; cited from earlier work
H37Rv = conditions: cited from earlier work
InhA [4] = conditions: read-out: InhA IC50; cited from earlier work

With 5-n-butyltriclosan [Compound 10] the “MIC H37Rv ΔkatG” value [1] was 19 (60) µg/ml and 19 (60) µM, the “MIC H37Rv PmabAinhA (C-15T)” value [2] was 37 µg/mL and the “MIC H37Rv PmabAinhA (C-15T)” value ([2]; value in parentheses) was 120 µM. The “MIC H37Rv” value (M. tuberculosis H37Rv) was 9.4 µg/mL and the “MIC H37Rv” value (M. tuberculosis H37Rv; value in parentheses) was 30 µM.
For NC(=O)C1=CN([C@@H]2O[C@H](COP(=O)(O)OP(=O)(O)OC[C@H]3O[C@@H](n4cnc5c(N)ncnc54)[C@H](O)[C@@H]3O)[C@@H](O)[C@H]2O)C=C[C@@H]1C(=O)c1ccncc1 [INH-NAD], the Ki (InhA [3]) is given as 5 nM.
For CCCCCCCCc1ccc(Oc2ccccc2)c(O)c1 [Sullivan’s n-octyl analog], the “MIC vs. H37Rv” value (H37Rv; des-chloro analogs of Sullivan) is listed as 6.5 µM (≈ 1.94 µg/mL) and the IC50 (InhA [4]) is listed as 5 nM.
For CCc1cc(C(N)=S)ccn1 [ethionamide], the MIC (H37Rv) is given as 18 µM (≈ 2.99 µg/mL).
With NNC(=O)c1ccncc1 [INH, isoniazid] the “MIC H37Rv ΔkatG” value [1] was >200 (>1400) µg/ml and >200 (>1400) µM and the “fold loss in potency versus InhA(C-15T) strain compared to wild-type” value ([2]; MIC ratio vs wild-type strain) was 13 fold.
